Reference: patent US20230167075A1, “INTERLEUKIN INHIBITORS” (UNIVERSITY OF GREENWICH, priority 2020, published 2023)

Experiments:
Type in all cases: cell-based, human
Interleukin (IL)-1 beta = assay: Inhibition of secreted Interleukin-1 beta in LPS-stimulated PBMCs (cytometric bead array); settings: PBMCs stimulated with LPS, 24 hours
Method: (§1) The compounds of formulae (I), (IA) and (IB) may be investigated for inhibition of pro-inflammatory cytokines Interleukin (IL)-1p, 2, 4, 6, 8, 13 and 17A, in peripheral blood mononuclear cells (PBMCs) isolated from fresh human buffy coats by centrifugation on Lymphoprep™ (Stemcell Technologies). All human cells are grown in cell culture medium RPMI-1640 supplemented with 1% penicillin/streptomycin and 5% heat inactivated fetal bovine serum.
(§2) PBMCs stimulated with LPS (Salmonella enterica serotype typhimurium) are incubated for 24 hours containing the compounds under investigation, reconstituted in dimethyl sulfoxide (DMSO). The secreted levels of Interleukin-1(3 is measured in the cell culture supernatant using a cytometric bead array and the cell viability is quantified using Trypan blue.

interleukin (IL)-6 = assay: Inhibition of Interleukin-6 in PBMCs
Method: as §1

interleukin (IL)-17A = assay: Inhibition of secreted Interleukin-17A in PMA/ionomycin-stimulated PBMCs (cytometric bead array); settings: PBMCs stimulated with PMA/ionomycin, 24 hours
Method: as §1
as §2, with “PMA/ionomycin” for “LPS (Salmonella enterica serotype typhimurium)”, “DMSO.” for “dimethyl sulfoxide (DMSO).”, “Interleukin-17A are” for “Interleukin-1(3 is”

interleukin (IL)-8 = assay: Inhibition of Interleukin-8 in PBMCs
Method: as §1

IL-2 = assay: Inhibition of IL-2 release, stimulated CD4-positive T cells
Method: (§3) The compounds of formulae (I), (IA) and (IB) may be investigated for inhibition of pro-inflammatory cytokines Interleukin-2, 4 and 13 in human CD4-positive T cells isolated from fresh isolated PBMCS using a CD4-positive T cell isolation kit.
(§4) CD4-positive T cells stimulated with beads coated with antibodies against CD2, CD3 and CD28 are incubated for 48 hours containing the compounds under investigation, reconstituted in DMSO. The secreted levels of Interleukin-2, 4 and 13 are measured in the cell culture supernatant using a cytometric bead array and the cell viability is measured using an MTT (3-(4,5-dimethylthiazol-2-yl)-2,5-diphenyltetrazolium bromide) assay.
(§5) Secreted IL-4 levels may be measured using electrochemiluminescence (MSD kits, Meso Scale Discovery), while secreted IL-2 levels may be measured using proximity homogenous time-resolved fluorescence (HTRF) and the amount of living cells may be measured by addition of resazurin (PrestoBlue®).

IL-4 = assay: Inhibition of IL-4 release, stimulated CD4-positive T cells
Method: as §3, §4, §5

CD4-positive T cells = assay: Inhibition of cell viability in the IL-2/IL-4 release assays
Method: as §4, §5

[1] = as above; settings: human; read-out: Max Effect, Inhibition of cell viability
Method: as §4, §5

SMILES: Nc1nnc(C(c2ccccc2)c2ccccc2)c(N)n1 [3,5-Diamino-6-(diphenylmethyl)-1,2,4-triazine]
- inhibition of Interleukin IL-1 beta (Interleukin (IL)-1 beta): moderate inhibition
- inhibition of Interleukin IL-6 (interleukin (IL)-6): moderate inhibition
- inhibition of Interleukin IL-17A (interleukin (IL)-17A): high inhibition
- inhibition of Interleukin IL-8 (interleukin (IL)-8): high inhibition
- level of inhibition of IL-2 (in words) (IL-2): good level of inhibition
- level of inhibition of IL-4 (in words) (IL-4): good level of inhibition
- inhibition of cell viability (in words) (CD4-positive T cells): without significant inhibition
- cytotoxicity at 48 h [1]: 28%

SMILES: Nc1nnc(-c2sc(Cl)c(Cl)c2Cl)c(N)n1 [3,5-diamino-6-[2-(3,4,5-trichlorothienyl)]-1,2,4-triazine]
- inhibition of Interleukin IL-1 beta (Interleukin (IL)-1 beta): inhibitory effect
- inhibition of Interleukin IL-6 (interleukin (IL)-6): inhibitory effect
- inhibition of Interleukin IL-17A (interleukin (IL)-17A): inhibitory effect
- inhibition of Interleukin IL-8 (interleukin (IL)-8): inhibitory effect
